Measured values reported in patent publication US20250057859A1, “CANNABICHROMENEQUINONE AND ANALOGUES THEREOF, AND METHOD OF USING COMPOSITIONS THEREOF AS ANTI-INFLAMMATORY AGENTS” (Juva Life, Inc., priority 2021, published 2025).
pIC50: −log10 of the molar value. Read-outs that look alike come from different tables or passages of the source.

Columns and labels:
[1] = tested on: IL-1β; test: Inhibitory activity on IL-1β
[2] = target: T1, Recombinant human ALOX15 (Arachidonate 15-Lipoxygenase) (Homo sapiens, UniProt P16050); test: Biochemical LOX-15 assay
T1 construct: full length encompassing amino acids 2-662(end); FLAG (N); purchased BPS Biosciences 50220
T1 sequence (P16050 2-662): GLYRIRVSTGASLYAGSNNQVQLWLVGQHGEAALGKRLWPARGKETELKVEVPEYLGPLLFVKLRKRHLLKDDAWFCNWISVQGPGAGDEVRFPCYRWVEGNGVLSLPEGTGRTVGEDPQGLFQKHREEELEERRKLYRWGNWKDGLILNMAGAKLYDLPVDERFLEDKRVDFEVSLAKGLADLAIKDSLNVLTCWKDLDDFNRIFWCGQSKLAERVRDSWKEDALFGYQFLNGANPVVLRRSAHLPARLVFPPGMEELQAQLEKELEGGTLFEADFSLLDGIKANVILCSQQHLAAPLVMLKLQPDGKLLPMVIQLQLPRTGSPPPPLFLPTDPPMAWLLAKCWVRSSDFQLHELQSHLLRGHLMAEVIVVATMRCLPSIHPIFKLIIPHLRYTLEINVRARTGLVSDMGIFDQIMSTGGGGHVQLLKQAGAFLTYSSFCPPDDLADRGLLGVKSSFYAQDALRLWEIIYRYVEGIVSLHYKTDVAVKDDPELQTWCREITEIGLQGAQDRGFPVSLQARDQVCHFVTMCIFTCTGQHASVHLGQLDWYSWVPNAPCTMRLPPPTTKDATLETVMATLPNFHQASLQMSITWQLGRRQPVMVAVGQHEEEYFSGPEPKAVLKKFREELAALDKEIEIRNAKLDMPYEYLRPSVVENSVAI
From the text: • Recombinant human ALOX15 (Arachidonate 15-Lipoxygenase), full length encompassing amino acids 2-662(end). In this construct the N-terminal end of ALOX15 is fused with a FLAG tag was obtained from BPS Biosciences (Cat #50220). • Dihydrorhodamine 123, DHR, was obtained from Sigma (Cat #1054) • Arachidonic acid, AA, was obtained from Sigma (Cat #A3611) • Other reagents: black 384 well assay plates were obtained from Corning (Cat #3820). • Equipment: Synergy Neo2 Multi-mode plate reader (Biotek), Labcyte 550 acoustic dispenser (Labcyte), Biomek FX robotic dispenser (Beckman Coulter), Sorvall Legend RT centrifuge (Kendro).
The LOX-15 assay was performed in assay buffer comprising: 50 mM Tris (pH 7.5),), 5 uM DHR, 50 uM AA, and 50 nM recombinant enzyme. Serially diluted compounds were prepared in DMSO in Echo qualified 384 well plates. An assay buffer was then prepared without supplemented 10 uM DHRA. 10 uL of the supplemented buffer was dispensed into control (no enzyme) wells in the black 384well assay plate. Next, a 2× enzyme solution was prepared, comprising 100 nM LOX-15 enzyme in the supplemented assay buffer. 10 uL of the 2× enzyme solution was then dispensed into test wells in the black 384well assay plate. Serially diluted compounds were added to the assay plate by acoustic dispensing (Labcyte 550). Control wells received DMSO only.
Next, the 2× substrate was prepared to comprise 100 uM arachidonic acid in the assay buffer. 10 uL of the 2× substrate was then added to all wells in the assay plate. The plate was incubated for 3 hours. The plate was read on Synergy Neo2 in fluorescence mode: excitation 485 nm, emission 530 nm. % inhibition and the resulting IC50 was calculated for the compound using the following equation:
[formula] • where RFU100% is fluorescence in control samples without compound, RFU0% is fluorescence in control samples without LOX-15, and RFUcompound fluorescence in a sample with compound.
(§1) The calculated %-Inh values were plotted against compound concentration. To determine IC50 values, dose-response curves were fitted by a 4-parameter sigmoid inhibition model using XLFit® software (IDBS).

[3] = tested on: TNFα; test: TNFa secretion assay in human PBMCs (LPS-stimulated, ELISA); format: cell-based; conditions: PBMC, LPS 100 ng/mL 6 hr, read-out: TNF inhibitory activity IC50
Description: Fetal bovine serum (FBS) was obtained from ThermoFisher (Cat #16000044). • Other reagents: 96well TC plates were obtained from ThermoFisher (Cat #07-2000-90). LPS was obtained from Sigma (Cat #L3024).
TNF-alpha was assessed using a standard ELISA protocol. Cryopreserved PBMCs were thawed in a water bath and transferred to 50 mL polypropylene tubes. The cells were washed two times with 25 mL of RPMI medium supplemented with 5% of heat-inactivated FBS and re-suspended at a density of 4.5^10^6 cells/mL. The cells were plated into 96 well TC late (100 uL/well). Serially diluted compound was added to the cells in duplicate wells for each concentration. Control wells received DMSO only (0.3% final). The cells were pre-incubated with compound for 1 hr. After pre-incubation, the cells were stimulated by LPS (100 ng/mL) for 6 hr. Control samples with and without LPS in the absence of compound were assembled in each test plate. TNFa was detected in media supernatants by using a sandwich anti-TNFα ELISA kit (BD Biosciences) according to protocol provided by the manufacturer. ELISA readout (optical density at 450 nm) is commensurable with the amount of TNFα produced by the cells. Assay window was determined in each experiment by comparing average OD450 values in stimulated and un-stimulated samples in the absence of compound. ELISA calibration was performed in each detection plate using serially diluted recombinant human TNFα, to ensure that OD450 values for all test samples were within linear range of detection.%-Inhibition by compound was calculated using following equation:
[formula] • where OD450100% is optical density in control samples stimulated with LPS without compound, OD4500% is optical density in unstimulated control samples, and OD450compound is optical density in a sample stimulated with LPS in the presence of compound.
as §1

[4] = 50 nM recombinant enzyme, 50 uM AA, read-out: 15-Lox inhibitory activity IC50

| Structure (SMILES) | pIC50 [1] | pIC50 [2, 4] | pIC50 [3] | pIC50 [2] |
| --- | --- | --- | --- | --- |
| CCCCCC1=CC(=O)C2=C(OC(C)(CCC=C(C)C)C=C2)C1=O (stereo not drawn) [Formula II] | 5.76 | 5.27 | 6.03 | – |
| CCCCCc1cc(OC(C)=O)c2c(c1OC(C)=O)OC(C)(CCC=C(C)C)C=C2 (stereo not drawn) [Formula XXIII] | 6.01 | < 5.00 | 5.00 | – |
| CCCCCc1cc(O)c2c(c1O)OC(C)(CCC=C(C)C)C=C2 (stereo not drawn) [Formula XXII] | 5.48 | 5.91 | 5.04 | – |
| CCCCCc1cc(OC)c2c(c1OC)OC(C)(CCC=C(C)C)C=C2 (stereo not drawn) [Formula XXIV] | < 5.00 | < 5.00 | 4.97 | – |
| CCCCCC1=C(NCC)C(=O)C2=C(OC(C)(CCC=C(C)C)C=C2)C1=O (stereo not drawn) [Formula XXVIII] | < 5.00 | < 5.00 | < 5.00 | – |
| CC(C)=CCCC1(C)C=CC2=C(O1)C(=O)c1ccccc1C2=O (stereo not drawn) [Formula XXVII] | < 5.00 | – | < 5.00 | < 5.00 |
| CCCCCC1=CC(=O)C2=C(O[C@](C)(CCC=C(C)C)C=C2)C1=O [Formula XXVI] | 6.27 | 5.71 | 6.21 | – |
| CCCCCC1=C(NCCC)C(=O)C2=C(OC(C)(CCC=C(C)C)C=C2)C1=O (stereo not drawn) [Formula XXV] | < 5.00 | 5.24 | 5.05 | – |
